From PubChem BioAssay (NCI)
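The compound was tested at five concentrations on cells cultured in 96-well plates, with a 48-hour exposure period. Here, GI50 denotes the concentration required for 50% inhibition of growth. TGI denotes the concentration required for complete inhibition of growth.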

Legend:
Experiment in all cases: NCI-60 cell line screen, 48 h
BT-549 breast = test system: BT-549 breast
NCI/ADR-RES ovarian = test system: NCI/ADR-RES ovarian
MDA-MB-435 = test system: MDA-MB-435
NCI-H226 lung = test system: NCI-H226 lung
M14 melanoma = test system: M14 melanoma
COLO 205 colon = test system: COLO 205 colon
PC-3 prostate = test system: PC-3 prostate
TK-10 renal = test system: TK-10 renal
786-0 renal = test system: 786-0 renal
IGROV1 ovarian = test system: IGROV1 ovarian
SK-MEL-28 melanoma = test system: SK-MEL-28 melanoma
OVCAR-8 ovarian = test system: OVCAR-8 ovarian
KM12 colon = test system: KM12 colon
RXF 393 renal = test system: RXF 393 renal
HCT-116 colon = test system: HCT-116 colon
CCRF-CEM leukemia = test system: CCRF-CEM leukemia
UACC-257 melanoma = test system: UACC-257 melanoma
SNB-75 CNS = test system: SNB-75 CNS
NCI-H460 lung = test system: NCI-H460 lung
HS 578T breast = test system: HS 578T breast
SK-OV-3 ovarian = test system: SK-OV-3 ovarian
EKVX NSCLC = test system: EKVX NSCLC
A498 renal = test system: A498 renal
NCI-H522 lung = test system: NCI-H522 lung
T-47D breast = test system: T-47D breast
HOP-92 NSCLC = test system: HOP-92 NSCLC
SNB-19 CNS = test system: SNB-19 CNS
MDA-MB-231 breast = test system: MDA-MB-231 breast
NCI-H23 lung = test system: NCI-H23 lung
DU-145 prostate = test system: DU-145 prostate
OVCAR-4 ovarian = test system: OVCAR-4 ovarian
HCT-15 colon = test system: HCT-15 colon
MOLT-4 leukemia = test system: MOLT-4 leukemia
HOP-62 NSCLC = test system: HOP-62 NSCLC
SN12C renal = test system: SN12C renal
OVCAR-3 ovarian = test system: OVCAR-3 ovarian
RPMI-8226 leukemia = test system: RPMI-8226 leukemia
OVCAR-5 ovarian = test system: OVCAR-5 ovarian
HCC-2998 colon = test system: HCC-2998 colon
U251 CNS = test system: U251 CNS
SF-539 CNS = test system: SF-539 CNS
A549 NSCLC = test system: A549 NSCLC
UACC-62 melanoma = test system: UACC-62 melanoma
SW-620 colon = test system: SW-620 colon
HT29 colon = test system: HT29 colon
SK-MEL-5 melanoma = test system: SK-MEL-5 melanoma
ACHN renal = test system: ACHN renal
SF-268 CNS = test system: SF-268 CNS
MCF7 breast = test system: MCF7 breast
CAKI-1 renal = test system: CAKI-1 renal
SK-MEL-2 melanoma = test system: SK-MEL-2 melanoma
SF-295 CNS = test system: SF-295 CNS
UO-31 renal = test system: UO-31 renal
LOX IMVI melanoma = test system: LOX IMVI melanoma
MALME-3M melanoma = test system: MALME-3M melanoma

COc1cc2c(cc1OCc1ccccc1)N=CC1C[C@@H](O)CN1C2=O (stereo not given in full)
GI50 (BT-549 breast): 2.47 µM
TGI (BT-549 breast): 9.54 µM
GI50 (NCI/ADR-RES ovarian): 14.7 µM
TGI (NCI/ADR-RES ovarian): > 56.7 µM
GI50 (MDA-MB-435): 3.88 µM
TGI (MDA-MB-435): 14.7 µM
GI50 (NCI-H226 lung): 23.6 µM
TGI (NCI-H226 lung): > 100 µM
GI50 (M14 melanoma): 4.71 µM
TGI (M14 melanoma): 19.5 µM
GI50 (COLO 205 colon): 3.77 µM
TGI (COLO 205 colon): > 30.9 µM
GI50 (PC-3 prostate): 23.1 µM
TGI (PC-3 prostate): > 100 µM
GI50 (TK-10 renal): 2.37 µM
TGI (TK-10 renal): 12.7 µM
GI50 (786-0 renal): 2.26 µM
TGI (786-0 renal): 7.68 µM
GI50 (IGROV1 ovarian): 6.89 µM
TGI (IGROV1 ovarian): > 60.7 µM
GI50 (SK-MEL-28 melanoma): 8.23 µM
TGI (SK-MEL-28 melanoma): 28.4 µM
GI50 (OVCAR-8 ovarian): 8.35 µM
TGI (OVCAR-8 ovarian): > 74.8 µM
GI50 (KM12 colon): 4.04 µM
TGI (KM12 colon): 32 µM
GI50 (RXF 393 renal): 1.7 µM
TGI (RXF 393 renal): 4.95 µM
GI50 (HCT-116 colon): 9.77 µM
TGI (HCT-116 colon): 42.2 µM
GI50 (CCRF-CEM leukemia): 1.79 µM
TGI (CCRF-CEM leukemia): 12.2 µM
GI50 (UACC-257 melanoma): 19.2 µM
TGI (UACC-257 melanoma): > 59.6 µM
GI50 (SNB-75 CNS): 9.08 µM
TGI (SNB-75 CNS): 47 µM
GI50 (NCI-H460 lung): 10.7 µM
TGI (NCI-H460 lung): > 100 µM
GI50 (HS 578T breast): 4.84 µM
TGI (HS 578T breast): 18.6 µM
GI50 (SK-OV-3 ovarian): 17.5 µM
TGI (SK-OV-3 ovarian): > 71.5 µM
GI50 (EKVX NSCLC): 24.2 µM
TGI (EKVX NSCLC): 56.4 µM
GI50 (A498 renal): 2.06 µM
TGI (A498 renal): 5.25 µM
GI50 (NCI-H522 lung): 1.4 µM
TGI (NCI-H522 lung): 7.43 µM
GI50 (T-47D breast): 1.95 µM
TGI (T-47D breast): 7.09 µM
GI50 (HOP-92 NSCLC): 3.99 µM
TGI (HOP-92 NSCLC): 39 µM
GI50 (SNB-19 CNS): 6.52 µM
TGI (SNB-19 CNS): > 100 µM
GI50 (MDA-MB-231 breast): 3.01 µM
TGI (MDA-MB-231 breast): 16.9 µM
GI50 (NCI-H23 lung): 7.83 µM
TGI (NCI-H23 lung): 25.3 µM
GI50 (DU-145 prostate): 4.04 µM
TGI (DU-145 prostate): 72.1 µM
GI50 (OVCAR-4 ovarian): 12.4 µM
TGI (OVCAR-4 ovarian): > 73.5 µM
GI50 (HCT-15 colon): 15.2 µM
TGI (HCT-15 colon): > 82.1 µM
GI50 (MOLT-4 leukemia): 2.01 µM
TGI (MOLT-4 leukemia): 5.51 µM
GI50 (HOP-62 NSCLC): 2.4 µM
TGI (HOP-62 NSCLC): 9.52 µM
GI50 (SN12C renal): 5.77 µM
TGI (SN12C renal): 24.2 µM
GI50 (OVCAR-3 ovarian): 2.64 µM
TGI (OVCAR-3 ovarian): 18.2 µM
GI50 (RPMI-8226 leukemia): 2.57 µM
TGI (RPMI-8226 leukemia): > 28 µM
GI50 (OVCAR-5 ovarian): 3.37 µM
TGI (OVCAR-5 ovarian): > 25.3 µM
GI50 (HCC-2998 colon): 17.1 µM
TGI (HCC-2998 colon): 37.1 µM
GI50 (U251 CNS): 2.86 µM
TGI (U251 CNS): > 100 µM
GI50 (SF-539 CNS): 2.11 µM
TGI (SF-539 CNS): 6.76 µM
GI50 (A549 NSCLC): 19.2 µM
TGI (A549 NSCLC): > 100 µM
GI50 (UACC-62 melanoma): 0.824 µM
TGI (UACC-62 melanoma): 17.1 µM
GI50 (SW-620 colon): 3.16 µM
TGI (SW-620 colon): 31.3 µM
GI50 (HT29 colon): 7.22 µM
TGI (HT29 colon): > 100 µM
GI50 (SK-MEL-5 melanoma): 2.53 µM
TGI (SK-MEL-5 melanoma): 5.38 µM
GI50 (ACHN renal): 5.83 µM
TGI (ACHN renal): 50 µM
GI50 (SF-268 CNS): 3.41 µM
TGI (SF-268 CNS): 26.7 µM
GI50 (MCF7 breast): 5.06 µM
TGI (MCF7 breast): > 100 µM
GI50 (CAKI-1 renal): 1.24 µM
TGI (CAKI-1 renal): 6.78 µM
GI50 (SK-MEL-2 melanoma): 3.08 µM
TGI (SK-MEL-2 melanoma): 9.19 µM
GI50 (SF-295 CNS): 4.62 µM
TGI (SF-295 CNS): > 71.5 µM
GI50 (UO-31 renal): 3.52 µM
TGI (UO-31 renal): 19.2 µM
GI50 (LOX IMVI melanoma): 2.37 µM
TGI (LOX IMVI melanoma): 6.5 µM
GI50 (MALME-3M melanoma): 9.08 µM
TGI (MALME-3M melanoma): 26 µM
